Measurements reported in paper PMC5603587, “Pharmacological inhibition of CaMKK2 with the selective antagonist STO-609 regresses NAFLD” (Scientific Reports, 2017).
Like-named read-outs stand apart in the source and are kept apart here.

Assays:
[1] = plasma pharmacokinetics after a single i.p. dose; type: in vivo; details: male, C57BL/6 J, ip, mouse; for AUC(0-t): read-out: AUC 0-24, plasma
Protocol: (§1) Plasma samples were prepared by mixing 5.0 μl of plasma with 45 μl of ice-cold MeOH followed by centrifugation at 15,000 × g for 15 min to remove protein. The resulting supernates were transferred into autosampler vials for analysis. Tissues (liver, intestine, kidney, pancreas, spleen, lung, heart, testis, white adipose tissue, gastrocnemius and brain) were weighed and homogenized in H2O/MeOH (1:1 v/v, 100 mg tissue in 600 μl). A volume of 200 μl of MeOH was added to 100 μl of tissue extracts. After vortexing and centrifugation (15 min at 15,000 × g), each supernate was transferred to an autosampler vial and 5.0 μl was injected to a system combining ultra-high performance liquid chromatography (UHPLC) and quadrupole time of flight mass spectrometry (QTOFMS) for analysis. The concentration of STO-609 was calculated based on standard curves in the corresponding matrices. The pharmacokinetic parameters were calculated using non-compartmental analysis with PKSolver[20]. The linear trapezoidal rule was used for area under the curve (AUC) calculation.
(§2) Separation of STO-609 and its metabolites was achieved using a LC-QTOFMS system (Agilent Technologies, Santa Clara, CA) equipped with a 100 mm × 2.1 mm (Agilent XDB C18) column as previously described. Briefly, the column temperature was maintained at 45 °C. The flow rate was maintained at 0.3 ml/min with a gradient ranging from 2% to 98% aqueous acetonitrile containing 0.1% formic acid over a 15 min run. QTOFMS was operated in positive mode with electrospray ionization. Ultra high pure nitrogen was applied as the drying (12 L/min) and collision gas. The drying gas temperature was set at 325°C and nebulizer pressure was maintained at 35 psi. Capillary voltages were set at 3.5 kV. During mass spectrometry, real time mass correction and accurate mass were achieved by continuously measuring standard reference ions at m/z 121.0508, 922.0098 in the positive mode. The MS/MS of STO-609 and its metabolites was performed in targeted mode with a default isolation width of 4 m/z and collision energy ramp ranging from 20 to 50 V. Mass chromatograms and mass spectra were acquired by MassHunter® Workstation data Acquisition software (Agilent, Santa Clara, CA) in centroid and profile formats from m/z 100 to 1000. The acquisition rate was set as 1.5 spectra per second. Statistical analysis was conducted using Student’s independent t-test. Data are presented as mean ± s.e.m.

[2] = tissue distribution after a single i.p. dose; type: in vivo; details: ip, 30 μM/kg i.p., mouse; for Cmax: 30 μM/kg
Protocol: as §1, §2

AUC(0-inf) ([1]; 30 μM/kg i.p.): 317 µM·h
CL/F ([1]; 30 μM/kg i.p.): 1.5 mL/min/kg
Cmax ([1]; 30 μM/kg i.p.): 32.6 µM
AUC(0-t) ([1]; 30 μM/kg i.p.): 245 µM·h
half-life ([1]; 30 μM/kg i.p., read-out: t½, plasma (converted)): 730 min
AUC(0-inf) ([1]; 300 μM/kg i.p.): 3250 µM·h
CL/F ([1]; 300 μM/kg i.p.): 1.5 mL/min/kg
Cmax ([1]; 300 μM/kg i.p.): 473 µM
AUC(0-t) ([1]; 300 μM/kg i.p.): 2930 µM·h
half-life ([1]; 300 μM/kg i.p., read-out: t½, plasma (converted)): 476 min
half-life ([1]; 30 and 300 μM/kg i.p., read-out: t½, plasma, over the doses): 480 to 720 min
half-life ([2]; C57BL/6J, intestine, read-out: t½, intestine (converted)): 231 min
half-life ([2]; C57BL/6J, kidney, read-out: t½, kidney (converted)): 510 min
Cmax ([2]; C57BL/6J, intestine, read-out: Cmax, intestine): 517 nM
Cmax ([2]; C57BL/6J, intestine, read-out: Cmax, intestine (text)): ~500 nM
Cmax ([2]; C57BL/6J, pancreas, read-out: Cmax, pancreas): 329 nM
half-life ([2]; C57BL/6J, pancreas, read-out: t½, pancreas (converted)): 191 min
half-life ([2]; C57BL/6J, spleen, read-out: t½, spleen (converted)): 240 min
half-life ([2]; male, C57BL/6 J, brain, read-out: t½, brain (converted)): 313 min
half-life ([2]; male, C57BL/6 J, gastrocnemius, read-out: t½, gastrocnemius (converted)): 350 min
half-life ([2]; male, C57BL/6 J, heart, read-out: t½, heart (converted)): 181 min
half-life ([2]; male, C57BL/6 J, liver, read-out: t½, liver (converted)): 224 min
half-life ([2]; male, C57BL/6 J, lung, read-out: t½, lung (converted)): 194 min
Cmax ([2]; male, C57BL/6 J, gastrocnemius, read-out: Cmax, gastrocnemius): 84 nM
Cmax ([2]; male, C57BL/6 J, heart, read-out: Cmax, heart): 293 nM
Cmax ([2]; male, C57BL/6 J, spleen, read-out: Cmax, spleen): 341 nM
Cmax ([2]; male, C57BL/6 J, testis, read-out: Cmax, testis): 209 nM
Cmax ([2]; male, C57BL/6 J, white adipose tissue, read-out: Cmax, white adipose tissue): 137 nM
half-life ([2]; male, C57BL/6 J, testis, read-out: t½, testis (converted)): 237 min
half-life ([2]; male, C57BL/6 J, white adipose tissue, read-out: t½, white adipose tissue (converted)): 236 min
Compound: O=C(O)c1ccc2c3c1cccc3c(=O)n1c3ccccc3nc21 [STO-609^S]
